Data set [1] is described as follows: Effect of PGA and AMPI on the solubility of 6-APA (dissolved concentrations in synthetic mixtures). Particulars: final pH 4.5, 2 hours, 20° C.
Method: (§1) The following synthetic mixtures were prepared, with a final pH of 4.5:
(§2) After 2 hours' incubation in a shaker incubator (20° C.) samples were taken and the dissolved concentration of each of these components was determined.
The conditions of data set [2]: final pH 4.5, 2 hours, 20° C.
Method: as §1, §2
The nature of data set [3]: Effect of PGA and CEX on the solubility of 7-ADCA (dissolved concentrations in synthetic mixtures). The settings on record: final pH 4.5, 2 hours, 20° C.
Method: Effect of PGA and PEX on the Solubility of 7-ADCA
The following synthetic mixtures were prepared, with a final pH of 4.5;
3% (m/m) 7-ADCA and 3.0% (m/m) CEX.H2O in water.
as §2
Setting [4] is: Example II Mixture 2: 3% (m/m) 6-APA and 0.4% (m/m) PG in water.
Setting [5] is: Example II Mixture 3: 3% (m/m) 6-APA, 0.4% (m/m) PG and 1.5% (m/m) PGA in water.
The mark [6] stands for this setting: Example II Mixture 4: 3% (m/m) 6-APA, 0.4% (m/m) PG, 1.5% (m/m) PGA and 3.0% (m/m) AMPI in water.
Setting [7] is: Example I Mixture 3: 3% (m/m) 7-ADCA, 0.4% (m/m) PG and 1.5% (m/m) PGA in water.
The mark [8] stands for this setting: Example I Mixture 4: 3% (m/m) 7-ADCA, 0.4% (m/m) PC, 1.5% (m/m) PGA and 3.0% (m/m) CEX.H2O in water.

Read-outs that look alike come from different tables or passages of the source.

With `CC1(C)S[C@@H]2[C@H](N)C(=O)N2[C@H]1C(=O)O` [6-APA, 6-aminopenicillanic acid], the dissolved concentration is recorded as 0.35 in data set [1] (Example II Mixture 1: 3% (m/m) 6-APA in water), 0.40 in data set [1] (setting [4]), 0.40 in data set [1] (setting [5]) and 0.90 in data set [1] (setting [6]). Further, the “Dissolved Concentrations” value in data set [2] (Example III Mixture 1: 3% (m/m) 6-APA in water) is 0.35 % (m/m); in data set [2] (Example III Mixture 2: 3% (m/m) 6-APA and 0.5% (m/m) HPG in water), 0.35 % (m/m); in data set [2] (Example III Mixture 3: 3% (m/m) 6-APA, 0.5% (m/m) HPG and 1.5% (m/m) HPGA in water) it was 0.40 % (m/m); in data set [2] (Example III Mixture 4: 3% (m/m) 6-APA, 0.5% (m/m) HPG and 2.0% HPG-Me in water) it was 0.50 % (m/m); in data set [2] (Example III Mixture 5: 3% (m/m) 6-APA, 0.5% (m/m) HPG, 1.5% (m/m) HPGA and 3.0% AMOX in water), 1.40 % (m/m); in data set [2] (Example III Mixture 6: 3.0% (m/m) 6-APA, 0.5% (m/m) HPG, 2.0% (m/m) HPG-Me and 3.0% (m/m) AMOX in water), 2.15 % (m/m).
For `N[C@@H](C(=O)O)c1ccccc1` [PG, D-phenyl glycine], the Dissolved Concentrations is reported as 0.40 % (m/m) in data set [3] (Example I Mixture 2: 3% (m/m) 7-ADCA and 0.4% (m/m) PG in water); 0.40 % (m/m) in data set [3] (setting [7]); 0.40 % (m/m) in data set [3] (setting [8]). Further, the dissolved concentration in data set [1] (setting [4]), in data set [1] (setting [5]) and in data set [1] (setting [6]) was 0.4 each time.
Consider `NC(=O)[C@H](N)c1ccccc1` [PGA, D-phenyl glycine amide], for which the Dissolved Concentrations in data set [3] (setting [7]) and in data set [3] (setting [8]) was 1.5 % (m/m) throughout. For the same compound, the dissolved concentration in data set [1] (setting [5]) and in data set [1] (setting [6]) was 1.5 throughout.
